The term EC50 denotes the concentration that produces a half-maximal response.

Each structure is given as a SMILES string.

From BindingDB's records for PubMed 35660250 (COMSATS University Islamabad, 2022) come the findings set out here.

Test [1] can be described thus: Antagonist activity against human P2X4R stably transfected in human 1321N1 cells assessed as ATP EC50 at 0.1 uM incubated for 30 mins by Fura-2 AM staining based calcium influx assay.
Test [2] in a line: Antagonist activity against human P2X4R stably transfected in human 1321N1 cells assessed as ATP EC50 at 0.2 uM incubated for 30 mins by Fura-2 AM staining based calcium influx assay.
Test [3] can be described thus: Antagonist activity against human P2X4R stably transfected in human 1321N1 cells assessed as ATP EC50 at 0.05 uM incubated for 30 mins by Fura-2 AM staining based calcium influx assay.
Test [4] can be described thus: Antagonist activity against human P2X7R stably transfected in human 1321N1 cells assessed as BzATP EC50 at 0.1 uM incubated for 30 mins by Fura-2 AM staining based calcium influx assay.
Test [5] in a line: Antagonist activity against human P2X7R stably transfected in human 1321N1 cells assessed as BzATP EC50 at 0.2 uM incubated for 30 mins by Fura-2 AM staining based calcium influx assay.
A short description of test [6]: Antagonist activity against human P2X7R stably transfected in human 1321N1 cells assessed as BzATP EC50 at 0.05 uM incubated for 30 mins by Fura-2 AM staining based calcium influx assay.

Consider `O=C(NC(=S)Nc1c(Br)ccc(C(F)(F)F)c1Br)c1ccc2c(c1)OCO2`, for which the EC50 in test [1] came out at 10.1 µM; in test [2], 10.8 µM; in test [3] it was 10.8 µM.
As to `O=C(NC(=S)Nc1cccc2cccnc12)c1ccc2c(c1)OCO2`, the EC50 in test [4] is 9.44 µM; in test [5], 9.14 µM; in test [6] it was 8.31 µM.
